Earlier results in PMC10089180 (Proceedings of the National Academy of Sciences of the …, 2023).
One block for each molecule: values may come before it.

What was measured:
FPR1 [1] = settings: ref [38]
FPR1 [2] = settings: tripeptide; ref [26], [27]
chemerin receptor = settings: Y1 missing or substituted by alanine; ref [17]
[3] = no reference given
[4] = ref [15], [16]

- dissociation constant (FPR1 [1]): low nanomolar range
Molecule: fMLF
- agonistic activity at FPR1 (FPR1 [2]): full agonistic activity

- reduced activity in functional assays (chemerin receptor): ~ 30%
Molecule: Y1 missing: C9 when Y1 was missing (FPGQFAFS; UniProt Q99969 150-157, looked up, fragment)

Molecule: Asp-Arg-Val-Tyr-Ile-His-Pro-Phe [AngII]
- chemotactic activity [3]: does not display chemotactic activity

B1: Pre-prochemerin: 163-amino acid protein without chemotactic activity (protein, UniProt Q99969 1-163, looked up)
chain: MRRLLIPLALWLGAVGVGVAELTEAQRRGLQVALEEFHKHPPVQWAFQETSVESAVDTPFPAGIFVRLEFKLQQTSCRKRDWKKPECKVRPNGRKRKCLACIKLGSEDKVLGRLVHCPIETQVLREAEEHQETQCLRVQRAGEDPHSFYFPGQFAFSKALPRS
modifications: full-length
- chemotactic activity / bioactivity of chemerin form [4]: without chemotactic activity

B2: prochemerin (21-163): Removal of the N-terminal signal peptide results in prochemerin (21-163) (protein, UniProt Q99969 21-163, looked up)
pro-form: ELTEAQRRGLQVALEEFHKHPPVQWAFQETSVESAVDTPFPAGIFVRLEFKLQQTSCRKRDWKKPECKVRPNGRKRKCLACIKLGSEDKVLGRLVHCPIETQVLREAEEHQETQCLRVQRAGEDPHSFYFPGQFAFSKALPRS
modifications: pro-form
- chemotactic activity / bioactivity of chemerin form [4]: low bioactivity
